# In US20250163024A1, “CHEMICAL TARGETING SWI/SNF RELATED, MATRIX ASSOCIATED, ACTIN DEPENDENT REGULATOR OF CHROMATIN, SUBFAMILY A, MEMBER 4 (SMARCA4) AND USE IN DIFFUSE INTRINSIC PONTINE GLIOMA (DIPG)” (DANA-FARBER CANCER INSTITUTE, INC., priority 2022, published 2025):
# Read-outs that look alike come from different tables or passages of the source.
# Columns and labels:
# Assay type in all cases: cell-based
# [1] = test system: MOLM13 (acute monocytic leukemia) cells; experiment: Cell proliferation assay (ATPlite cell viability) in MOLM13 cells; details: for IC50: Homo sapiens
# Protocol: 2000 cells were seeded in 50 μL of RPMI medium in each well of a white, solid bottomed 384-well plate. Plates were spun down briefly, and seeded cells were pinned with […] of the bifunctional compound at serial three-fold diluted concentrations using the JANUS® Liquid Handling Workstation. […] After compound treatment, 15 μL of 1:2 solution of ATPlite™ 1Step diluted in PBS was added to each well of the 384-well plates. Plates were put on a plate shaker for 1 minute and incubated at room temperature for 9 minutes, and the resulting luminescence signal was read using an EnVision® plate reader. Cell viability was calculated by normalizing luminescence signals of SMARC compound treated cells to that of vehicle treated cells.
# [2] = test system: MV411 (human myelomonocytic leukemia) cells; experiment: Cell proliferation assay (ATPlite cell viability) in MV411 cells; details: for IC50: Homo sapiens, MV4-11, 48 hours
# Protocol: 2000 cells were seeded in 50 μL of RPMI medium in each well of a white, solid bottomed 384-well plate. Plates were spun down briefly, and seeded cells were pinned with […] of the bifunctional compound at serial three-fold diluted concentrations using the JANUS® Liquid Handling Workstation. Plates were incubated at 37° C. in 5% CO2 for the indicated treatment time (48 hours). After compound treatment, 15 μL of 1:2 solution of ATPlite™ 1Step diluted in PBS was added to each well of the 384-well plates. Plates were put on a plate shaker for 1 minute and incubated at room temperature for 9 minutes, and the resulting luminescence signal was read using an EnVision® plate reader. Cell viability was calculated by normalizing luminescence signals of SMARC compound treated cells to that of vehicle treated cells.
# SMARCA4 (BRG) = target: T1, SMARCA4 (BRG) (Homo sapiens, UniProt P51532); experiment: Cellular degradation of SMARCA4 in NOMO-1 cells (western blot); details: NOMO1 cells, low micromolar treatment, 24 hours, western blot FIG. 1A-1B
# T1 construct: endogenous in cells; host or cells: NOMO-1 cells
# Protocol: For each tested condition, 1 million cells were seeded into a well of a 6-well plate. After overnight incubation at 37° C. in 5% CO2, cells were treated with either DMSO or varying doses of the indicated bifunctional compound and put back into the incubator for the indicated treatment time. Treated cells were collected by transferring cell suspensions from 6-well plate wells into microcentrifuge tubes and spinning down samples at 3000 rpm for 3 minutes. Supernatant was discarded and all samples were washed with phosphate-buffered saline (PBS) to remove any remaining compound from the cells. Cells were lysed using radioimmunoprecipitation assay (RIPA) buffer and sonicated on ice for 3 seconds at 25% amplification and allowed to rest for 15-30 minutes. Lysates were then spun down at 15000 rpm for 10 minutes and supernatant was collected. Protein concentration was measured using the Pierce™ bicinchoninic acid (BCA) Protein Assay Kit from ThermoFisher Scientific according to the manufacturer's instructions. Equivalent amounts of protein were resolved by western blotting using 4-12% Bis-Tris NuPAGE™ gels (Thermo-Fisher Scientific) prior to transfer and overnight immunoblotting using primary antibodies to the proteins indicated. […]
# [3] = MOLM-13, 72 h (starred values), read-out: IC50 (μM) MOLM13, *72 h
# [4] = MOLM-13, 48 hours, read-out: IC50 (μM) MOLM13-48h
# T1 sequence (P51532 whole entry): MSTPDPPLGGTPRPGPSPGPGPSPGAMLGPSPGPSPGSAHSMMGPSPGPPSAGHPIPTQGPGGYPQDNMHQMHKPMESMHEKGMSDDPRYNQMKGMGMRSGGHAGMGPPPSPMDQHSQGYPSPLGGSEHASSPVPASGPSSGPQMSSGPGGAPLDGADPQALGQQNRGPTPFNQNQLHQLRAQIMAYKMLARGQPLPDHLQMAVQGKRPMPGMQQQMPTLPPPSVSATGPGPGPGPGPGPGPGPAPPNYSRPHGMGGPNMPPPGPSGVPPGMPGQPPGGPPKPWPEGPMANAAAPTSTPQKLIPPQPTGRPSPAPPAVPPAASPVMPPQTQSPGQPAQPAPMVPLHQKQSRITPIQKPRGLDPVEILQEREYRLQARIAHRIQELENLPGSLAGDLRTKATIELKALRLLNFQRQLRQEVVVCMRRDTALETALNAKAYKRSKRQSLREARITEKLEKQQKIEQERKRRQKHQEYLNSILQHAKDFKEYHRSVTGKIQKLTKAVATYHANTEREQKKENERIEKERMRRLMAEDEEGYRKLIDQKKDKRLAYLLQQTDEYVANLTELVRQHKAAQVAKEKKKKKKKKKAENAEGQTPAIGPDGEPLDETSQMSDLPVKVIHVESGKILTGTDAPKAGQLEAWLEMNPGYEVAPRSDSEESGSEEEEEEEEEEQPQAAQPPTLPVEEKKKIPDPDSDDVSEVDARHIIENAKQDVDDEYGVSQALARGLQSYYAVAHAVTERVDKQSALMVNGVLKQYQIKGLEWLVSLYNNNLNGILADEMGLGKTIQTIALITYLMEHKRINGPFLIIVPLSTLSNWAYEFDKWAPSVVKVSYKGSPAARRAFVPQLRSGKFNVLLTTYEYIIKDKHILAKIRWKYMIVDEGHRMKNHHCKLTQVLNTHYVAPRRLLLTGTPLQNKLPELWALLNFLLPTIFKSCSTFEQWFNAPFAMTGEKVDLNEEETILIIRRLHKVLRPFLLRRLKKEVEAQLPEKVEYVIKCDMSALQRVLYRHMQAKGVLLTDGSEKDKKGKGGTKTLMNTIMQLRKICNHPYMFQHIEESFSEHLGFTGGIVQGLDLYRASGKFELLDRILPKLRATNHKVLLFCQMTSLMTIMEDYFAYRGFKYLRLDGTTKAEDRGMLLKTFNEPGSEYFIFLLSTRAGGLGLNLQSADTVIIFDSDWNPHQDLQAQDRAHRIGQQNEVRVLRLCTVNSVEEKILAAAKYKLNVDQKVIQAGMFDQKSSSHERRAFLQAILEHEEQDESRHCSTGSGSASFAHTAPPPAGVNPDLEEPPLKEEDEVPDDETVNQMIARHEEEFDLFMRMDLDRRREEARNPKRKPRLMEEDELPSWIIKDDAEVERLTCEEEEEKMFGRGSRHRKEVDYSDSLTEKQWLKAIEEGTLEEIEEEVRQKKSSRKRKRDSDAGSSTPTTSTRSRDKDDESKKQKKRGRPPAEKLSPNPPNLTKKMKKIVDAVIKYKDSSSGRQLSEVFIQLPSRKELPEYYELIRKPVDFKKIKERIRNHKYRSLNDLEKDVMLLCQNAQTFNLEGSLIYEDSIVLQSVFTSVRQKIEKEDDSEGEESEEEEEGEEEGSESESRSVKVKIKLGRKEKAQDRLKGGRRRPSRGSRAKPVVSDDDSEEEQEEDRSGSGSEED
IC50 [2] [µM],"IC50 [1, 4] [µM]",SMILES,further results
0.491,,O=C1CCC(N2C(=O)c3cccc(NCCCCCCCCNC(=O)c4cccc(C#Cc5cc(NC(=O)Nc6ccnc(Cl)c6)ccn5)c4)c3C2=O)C(=O)N1 (stereo not drawn) [Compound 17],"IC50 [1, 3]: 0.566 µM"
21.7,6.18,O=C1CCC(N2C(=O)c3cccc(NCCNC(=O)c4cccc(C#Cc5cc(NC(=O)Nc6ccnc(Cl)c6)ccn5)c4)c3C2=O)C(=O)N1 (stereo not drawn) [Compound 23],
0.037,0.253,O=C1CCC(N2C(=O)c3ccc(NCCOCCNC(=O)c4cccc(C#Cc5cc(NC(=O)Nc6ccnc(Cl)c6)ccn5)c4)cc3C2=O)C(=O)N1 (stereo not drawn) [Compound 22],
0.0389,0.344,O=C1CCC(N2C(=O)c3cccc(NCCCCCCNC(=O)c4cccc(C#Cc5cc(NC(=O)Nc6ccnc(Cl)c6)ccn5)c4)c3C2=O)C(=O)N1 (stereo not drawn) [Compound 24],
0.109,0.0571,"O=C1CCC(N2C(=O)c3cccc(NCCCCNC(=O)c4cccc(C#Cc5cc(NC(=O)Nc6ccnc(Cl)c6)ccn5)c4)c3C2=O)C(=O)N1 (racemic) [Compound 19, 3-((4-(3-(2-chloropyridin-4-yl)ureido)pyridin-2-yl)ethynyl)-N-(4-((2-(2,6-dioxopiperidin-3-yl)-1,3-dioxoisoindolin-4-yl)amino)butyl)benzamide]",IC50 (μM) MOLM13-48h ([1]; 48 hours): submicromolar; IC50 (μM) MV411-48h [2]: submicromolar
,,"O=C1CCC(N2C(=O)c3cccc(NCCCCNC(=O)c4ccc(C#Cc5cc(NC(=O)Nc6ccnc(Cl)c6)ccn5)cc4)c3C2=O)C(=O)N1 (stereo not drawn) [Compound 6, 4-((4-(3-(2-chloropyridin-4-yl)ureido)pyridin-2-yl)ethynyl)-N-(4-((2-(2,6-dioxopiperidin-3-yl)-1,3-dioxoisoindolin-4-yl)amino)butyl)benzamide]",BRG (SMARCA4) degradation (SMARCA4 (BRG)): significantly degraded
0.0102,0.0793,O=C1CCC(N2C(=O)c3ccc(NCCCCNC(=O)c4cccc(C#Cc5cc(NC(=O)Nc6ccnc(Cl)c6)ccn5)c4)cc3C2=O)C(=O)N1 (stereo not drawn) [Compound 21],
,,"O=C1CCC(N2C(=O)c3cccc(NCCCCNC(=O)c4cccc(CCc5cc(NC(=O)Nc6ccnc(Cl)c6)ccn5)c4)c3C2=O)C(=O)N1 (stereo not drawn) [Compound 5, 3-(2-(4-(3-(2-chloropyridin-4-yl)ureido)pyridin-2-yl)ethyl)-N-(4-((2-(2,6-dioxopiperidin-3-yl)-1,3-dioxoisoindolin-4-yl)amino)butyl)benzamide]",BRG (SMARCA4) degradation (SMARCA4 (BRG)): significantly degraded

SMILES,IC50 [2] [µM],"IC50 [1, 4] [µM]",further results
O=C1CCC(N2C(=O)c3cccc(NCCOCCOCCNC(=O)c4cccc(C#Cc5cc(NC(=O)Nc6ccnc(Cl)c6)ccn5)c4)c3C2=O)C(=O)N1 (stereo not drawn) [Compound 18],0.109,,"IC50 [1, 3]: 1.28 µM"
